Results published in PubChem BioAssay (NCI).
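Exposure lasted 48 hours, with cells grown in 96-well plates and compounds tested at five concentrations. The concentration for 50% growth inhibition is given as GI50. TGI is the concentration that stops growth completely.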

Assays:
Assay in all cases: growth of human tumour cells (NCI), 48 h
786-0 renal = system: 786-0 renal
A498 renal = system: A498 renal
A549 NSCLC = system: A549 NSCLC
COLO 205 colon = system: COLO 205 colon
DU-145 prostate = system: DU-145 prostate
EKVX NSCLC = system: EKVX NSCLC
HCC-2998 colon = system: HCC-2998 colon
HCT-116 colon = system: HCT-116 colon
HCT-15 colon = system: HCT-15 colon
HL-60(TB) leukemia = system: HL-60(TB) leukemia
HOP-92 NSCLC = system: HOP-92 NSCLC
HS 578T breast = system: HS 578T breast
HT29 colon = system: HT29 colon
IGROV1 ovarian = system: IGROV1 ovarian
KM12 colon = system: KM12 colon
M14 melanoma = system: M14 melanoma
MALME-3M melanoma = system: MALME-3M melanoma
MCF7 breast = system: MCF7 breast
MDA-MB-231 breast = system: MDA-MB-231 breast
MDA-MB-435 = system: MDA-MB-435
NCI-H23 lung = system: NCI-H23 lung
NCI-H460 lung = system: NCI-H460 lung
NCI-H522 lung = system: NCI-H522 lung
NCI/ADR-RES ovarian = system: NCI/ADR-RES ovarian
OVCAR-3 ovarian = system: OVCAR-3 ovarian
OVCAR-5 ovarian = system: OVCAR-5 ovarian
OVCAR-8 ovarian = system: OVCAR-8 ovarian
PC-3 prostate = system: PC-3 prostate
RXF 393 renal = system: RXF 393 renal
SF-268 CNS = system: SF-268 CNS
SF-295 CNS = system: SF-295 CNS
SF-539 CNS = system: SF-539 CNS
SK-MEL-2 melanoma = system: SK-MEL-2 melanoma
SK-MEL-28 melanoma = system: SK-MEL-28 melanoma
SK-MEL-5 melanoma = system: SK-MEL-5 melanoma
SK-OV-3 ovarian = system: SK-OV-3 ovarian
SN12C renal = system: SN12C renal
SNB-19 CNS = system: SNB-19 CNS
SNB-75 CNS = system: SNB-75 CNS
SW-620 colon = system: SW-620 colon
TK-10 renal = system: TK-10 renal
U251 CNS = system: U251 CNS
UACC-257 melanoma = system: UACC-257 melanoma
UACC-62 melanoma = system: UACC-62 melanoma
UO-31 renal = system: UO-31 renal

Cc1ccc(NCCNCC(C)(C)O)c2c(=O)c3ccc(Cl)cc3sc12
GI50 (786-0 renal): 1570 nM
TGI (786-0 renal): 3040 nM
GI50 (A498 renal): 1630 nM
TGI (A498 renal): 3090 nM
GI50 (A549 NSCLC): 1640 nM
TGI (A549 NSCLC): 3090 nM
GI50 (COLO 205 colon): 1340 nM
TGI (COLO 205 colon): 2920 nM
GI50 (DU-145 prostate): 1670 nM
TGI (DU-145 prostate): 3080 nM
GI50 (EKVX NSCLC): 1380 nM
TGI (EKVX NSCLC): 2870 nM
GI50 (HCC-2998 colon): 1380 nM
TGI (HCC-2998 colon): 2910 nM
GI50 (HCT-116 colon): 1300 nM
TGI (HCT-116 colon): 2660 nM
GI50 (HCT-15 colon): 1050 nM
TGI (HCT-15 colon): 2320 nM
GI50 (HL-60(TB) leukemia): 1450 nM
TGI (HL-60(TB) leukemia): 3170 nM
GI50 (HOP-92 NSCLC): 455 nM
TGI (HOP-92 NSCLC): 1920 nM
GI50 (HS 578T breast): 1590 nM
TGI (HS 578T breast): 3840 nM
GI50 (HT29 colon): 1610 nM
TGI (HT29 colon): 3100 nM
GI50 (IGROV1 ovarian): 1350 nM
TGI (IGROV1 ovarian): 2960 nM
GI50 (KM12 colon): 1630 nM
TGI (KM12 colon): 3130 nM
GI50 (M14 melanoma): 1660 nM
TGI (M14 melanoma): 3260 nM
GI50 (MALME-3M melanoma): 1590 nM
TGI (MALME-3M melanoma): 3230 nM
GI50 (MCF7 breast): 1440 nM
TGI (MCF7 breast): 2970 nM
GI50 (MDA-MB-231 breast): 1160 nM
TGI (MDA-MB-231 breast): 2570 nM
GI50 (MDA-MB-435): 1740 nM
TGI (MDA-MB-435): 3270 nM
GI50 (NCI-H23 lung): 1530 nM
TGI (NCI-H23 lung): 3030 nM
GI50 (NCI-H460 lung): 1220 nM
TGI (NCI-H460 lung): 2600 nM
GI50 (NCI-H522 lung): 1820 nM
TGI (NCI-H522 lung): 3590 nM
GI50 (NCI/ADR-RES ovarian): 1520 nM
TGI (NCI/ADR-RES ovarian): 3020 nM
GI50 (OVCAR-3 ovarian): 1660 nM
TGI (OVCAR-3 ovarian): 3130 nM
GI50 (OVCAR-5 ovarian): 1470 nM
TGI (OVCAR-5 ovarian): 2950 nM
GI50 (OVCAR-8 ovarian): 1770 nM
TGI (OVCAR-8 ovarian): 3320 nM
GI50 (PC-3 prostate): 1350 nM
TGI (PC-3 prostate): 2710 nM
GI50 (RXF 393 renal): 1260 nM
TGI (RXF 393 renal): 2610 nM
GI50 (SF-268 CNS): 1520 nM
TGI (SF-268 CNS): 3220 nM
GI50 (SF-295 CNS): 1660 nM
TGI (SF-295 CNS): 3110 nM
GI50 (SF-539 CNS): 1440 nM
TGI (SF-539 CNS): 2820 nM
GI50 (SK-MEL-2 melanoma): 1590 nM
TGI (SK-MEL-2 melanoma): 3280 nM
GI50 (SK-MEL-28 melanoma): 1810 nM
TGI (SK-MEL-28 melanoma): 3380 nM
GI50 (SK-MEL-5 melanoma): 1580 nM
TGI (SK-MEL-5 melanoma): 2950 nM
GI50 (SK-OV-3 ovarian): 1460 nM
TGI (SK-OV-3 ovarian): 2980 nM
GI50 (SN12C renal): 1470 nM
TGI (SN12C renal): 3010 nM
GI50 (SNB-19 CNS): 1670 nM
TGI (SNB-19 CNS): 3270 nM
GI50 (SNB-75 CNS): 1340 nM
TGI (SNB-75 CNS): 2850 nM
GI50 (SW-620 colon): 1500 nM
TGI (SW-620 colon): 2960 nM
GI50 (TK-10 renal): 2170 nM
TGI (TK-10 renal): 3890 nM
GI50 (U251 CNS): 1670 nM
TGI (U251 CNS): 3060 nM
GI50 (UACC-257 melanoma): 1930 nM
TGI (UACC-257 melanoma): 3440 nM
GI50 (UACC-62 melanoma): 1810 nM
TGI (UACC-62 melanoma): 3420 nM
GI50 (UO-31 renal): 1030 nM
TGI (UO-31 renal): 2240 nM
